Test results reported in PubChem BioAssay (NCI).
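Test compounds were applied to cells in 96-well plates for 48 hours at 5 doses. Abbreviation: GI50, concentration required for 50% inhibition of growth. TGI: concentration producing complete growth inhibition.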

Experiments:
Assay in all cases: NCI-60 cell line screen, 48 h
NCI-H522 lung = system: NCI-H522 lung
NCI-H23 lung = system: NCI-H23 lung
SR leukemia = system: SR leukemia
UACC-257 melanoma = system: UACC-257 melanoma
786-0 renal = system: 786-0 renal
A549 NSCLC = system: A549 NSCLC
CAKI-1 renal = system: CAKI-1 renal
SF-539 CNS = system: SF-539 CNS
K-562 leukemia = system: K-562 leukemia
SN12C renal = system: SN12C renal
RPMI-8226 leukemia = system: RPMI-8226 leukemia
SNB-75 CNS = system: SNB-75 CNS
NCI/ADR-RES ovarian = system: NCI/ADR-RES ovarian
EKVX NSCLC = system: EKVX NSCLC
COLO 205 colon = system: COLO 205 colon
CCRF-CEM leukemia = system: CCRF-CEM leukemia
ACHN renal = system: ACHN renal
OVCAR-8 ovarian = system: OVCAR-8 ovarian
RXF 393 renal = system: RXF 393 renal
HCT-116 colon = system: HCT-116 colon
MDA-MB-435 = system: MDA-MB-435
HL-60(TB) leukemia = system: HL-60(TB) leukemia
UO-31 renal = system: UO-31 renal
LOX IMVI melanoma = system: LOX IMVI melanoma
SK-MEL-2 melanoma = system: SK-MEL-2 melanoma
KM12 colon = system: KM12 colon
UACC-62 melanoma = system: UACC-62 melanoma
HOP-62 NSCLC = system: HOP-62 NSCLC
HOP-92 NSCLC = system: HOP-92 NSCLC
NCI-H226 lung = system: NCI-H226 lung
SF-295 CNS = system: SF-295 CNS
SF-268 CNS = system: SF-268 CNS
SK-MEL-5 melanoma = system: SK-MEL-5 melanoma
HT29 colon = system: HT29 colon
SW-620 colon = system: SW-620 colon
A498 renal = system: A498 renal
M14 melanoma = system: M14 melanoma
NCI-H460 lung = system: NCI-H460 lung
MDA-MB-468 breast = system: MDA-MB-468 breast
SK-OV-3 ovarian = system: SK-OV-3 ovarian
MALME-3M melanoma = system: MALME-3M melanoma
HCT-15 colon = system: HCT-15 colon
OVCAR-4 ovarian = system: OVCAR-4 ovarian
MCF7 breast = system: MCF7 breast
SK-MEL-28 melanoma = system: SK-MEL-28 melanoma
IGROV1 ovarian = system: IGROV1 ovarian
T-47D breast = system: T-47D breast
OVCAR-3 ovarian = system: OVCAR-3 ovarian
PC-3 prostate = system: PC-3 prostate
OVCAR-5 ovarian = system: OVCAR-5 ovarian
HCC-2998 colon = system: HCC-2998 colon
TK-10 renal = system: TK-10 renal
SNB-19 CNS = system: SNB-19 CNS
U251 CNS = system: U251 CNS
BT-549 breast = system: BT-549 breast
MOLT-4 leukemia = system: MOLT-4 leukemia
MDA-MB-231 breast = system: MDA-MB-231 breast
HS 578T breast = system: HS 578T breast
DU-145 prostate = system: DU-145 prostate

`O=c1[nH]c2ccc(Cl)cc2cc1CSc1ccc(Nc2nccc(-c3ccc(Cl)cc3)n2)cc1` was tested, and the GI50 (NCI-H522 lung) was 20.1 µM, the TGI (NCI-H522 lung) was 51.7 µM and the GI50 (NCI-H23 lung) was 15.3 µM. For the same compound, the TGI (NCI-H23 lung) was 30 µM, the GI50 (SR leukemia) was 69.5 µM and the TGI (SR leukemia) was greater than 100 µM. The GI50 (UACC-257 melanoma) was greater than 100 µM, the TGI (UACC-257 melanoma) was greater than 100 µM and the GI50 (786-0 renal) was 17.4 µM. It also gave a TGI (786-0 renal) of 34.3 µM, a GI50 (A549 NSCLC) of 16.9 µM and a TGI (A549 NSCLC) of 41.2 µM. It also gave a GI50 (CAKI-1 renal) of 15.6 µM, a TGI (CAKI-1 renal) of 38.4 µM and a GI50 (SF-539 CNS) of 15.1 µM. For the same compound, the TGI (SF-539 CNS) was 31.1 µM, the GI50 (K-562 leukemia) was 15.8 µM and the TGI (K-562 leukemia) was greater than 100 µM. It also gave a GI50 (SN12C renal) greater than 100 µM, a TGI (SN12C renal) greater than 100 µM and a GI50 (RPMI-8226 leukemia) of 86.6 µM. It also gave a TGI (RPMI-8226 leukemia) greater than 100 µM, a GI50 (SNB-75 CNS) of 11.4 µM and a TGI (SNB-75 CNS) of 29.7 µM. The GI50 (NCI/ADR-RES ovarian) was 14.8 µM, the TGI (NCI/ADR-RES ovarian) was 42 µM and the GI50 (EKVX NSCLC) was 28.1 µM. The TGI (EKVX NSCLC) was greater than 100 µM, the GI50 (COLO 205 colon) was 40.5 µM and the TGI (COLO 205 colon) was greater than 100 µM. For the same compound, the GI50 (CCRF-CEM leukemia) was 13.4 µM, the TGI (CCRF-CEM leukemia) was greater than 100 µM and the GI50 (ACHN renal) was 22 µM. The TGI (ACHN renal) was 56.1 µM, the GI50 (OVCAR-8 ovarian) was 23.4 µM and the TGI (OVCAR-8 ovarian) was 72.6 µM. The GI50 (RXF 393 renal) was 12 µM, the TGI (RXF 393 renal) was 26.4 µM and the GI50 (HCT-116 colon) was 10.6 µM. It also gave a TGI (HCT-116 colon) of 26.7 µM, a GI50 (MDA-MB-435) of 15.3 µM and a TGI (MDA-MB-435) of 40.9 µM. It also gave a GI50 (HL-60(TB) leukemia) of 42.9 µM, a TGI (HL-60(TB) leukemia) greater than 100 µM and a GI50 (UO-31 renal) of 29 µM. It also gave a TGI (UO-31 renal) greater than 100 µM, a GI50 (LOX IMVI melanoma) of 20.6 µM and a TGI (LOX IMVI melanoma) of 60.9 µM. For the same compound, the GI50 (SK-MEL-2 melanoma) was 20 µM, the TGI (SK-MEL-2 melanoma) was 43 µM and the GI50 (KM12 colon) was 30.5 µM. It also gave a TGI (KM12 colon) greater than 100 µM, a GI50 (UACC-62 melanoma) of 19.6 µM and a TGI (UACC-62 melanoma) of 45.4 µM. It also gave a GI50 (HOP-62 NSCLC) of 16.5 µM, a TGI (HOP-62 NSCLC) of 31.7 µM and a GI50 (HOP-92 NSCLC) of 15.9 µM. For the same compound, the TGI (HOP-92 NSCLC) was 38.3 µM, the GI50 (NCI-H226 lung) was 16.5 µM and the TGI (NCI-H226 lung) was 45.1 µM. For the same compound, the GI50 (SF-295 CNS) was 17.6 µM, the TGI (SF-295 CNS) was 36.9 µM and the GI50 (SF-268 CNS) was 15.3 µM. For the same compound, the TGI (SF-268 CNS) was 40.1 µM, the GI50 (SK-MEL-5 melanoma) was 25.5 µM and the TGI (SK-MEL-5 melanoma) was 99.2 µM. It also gave a GI50 (HT29 colon) of 13.8 µM, a TGI (HT29 colon) greater than 100 µM and a GI50 (SW-620 colon) of 4.42 µM. For the same compound, the TGI (SW-620 colon) was 20 µM, the GI50 (A498 renal) was 20 µM and the TGI (A498 renal) was 43.7 µM. For the same compound, the GI50 (M14 melanoma) was 19.1 µM, the TGI (M14 melanoma) was 50.5 µM and the GI50 (NCI-H460 lung) was 6.2 µM. It also gave a TGI (NCI-H460 lung) of 25.5 µM, a GI50 (MDA-MB-468 breast) of 10.6 µM and a TGI (MDA-MB-468 breast) of 25.3 µM. For the same compound, the GI50 (SK-OV-3 ovarian) was 18.7 µM, the TGI (SK-OV-3 ovarian) was 39 µM and the GI50 (MALME-3M melanoma) was 19.1 µM. The TGI (MALME-3M melanoma) was 50.1 µM, the GI50 (HCT-15 colon) was 6.64 µM and the TGI (HCT-15 colon) was 24.5 µM. For the same compound, the GI50 (OVCAR-4 ovarian) was 16.9 µM, the TGI (OVCAR-4 ovarian) was 51 µM and the GI50 (MCF7 breast) was 5.65 µM. The TGI (MCF7 breast) was 28.5 µM, the GI50 (SK-MEL-28 melanoma) was 22.6 µM and the TGI (SK-MEL-28 melanoma) was 72.3 µM. It also gave a GI50 (IGROV1 ovarian) of 22.7 µM, a TGI (IGROV1 ovarian) of 52.5 µM and a GI50 (T-47D breast) of 29.6 µM. It also gave a TGI (T-47D breast) greater than 100 µM, a GI50 (OVCAR-3 ovarian) of 19.1 µM and a TGI (OVCAR-3 ovarian) of 37.1 µM. For the same compound, the GI50 (PC-3 prostate) was 9.22 µM, the TGI (PC-3 prostate) was 27.8 µM and the GI50 (OVCAR-5 ovarian) was 57.8 µM. The TGI (OVCAR-5 ovarian) was greater than 100 µM, the GI50 (HCC-2998 colon) was 25.3 µM and the TGI (HCC-2998 colon) was greater than 100 µM. It also gave a GI50 (TK-10 renal) of 18.6 µM, a TGI (TK-10 renal) of 36.2 µM and a GI50 (SNB-19 CNS) of 15.8 µM. The TGI (SNB-19 CNS) was 31.5 µM, the GI50 (U251 CNS) was 16.5 µM and the TGI (U251 CNS) was 36.1 µM. The GI50 (BT-549 breast) was 15.5 µM, the TGI (BT-549 breast) was 31.8 µM and the GI50 (MOLT-4 leukemia) was 13.5 µM. The TGI (MOLT-4 leukemia) was greater than 100 µM, the GI50 (MDA-MB-231 breast) was 12.4 µM and the TGI (MDA-MB-231 breast) was 28 µM. It also gave a GI50 (HS 578T breast) of 17.3 µM, a TGI (HS 578T breast) of 52 µM and a GI50 (DU-145 prostate) of 15.1 µM. For the same compound, the TGI (DU-145 prostate) was 61.7 µM.
